In US20260083865A1, “PROSTATE SPECIFIC MEMBRANE ANTIGEN (PSMA) LIGANDS AND USE THEREOF” (priority 2022, published 2026):
Where two headings read alike, the source gives them in different places. Numbered stars: 1 amine (or outer) side, 2 acyl side, 3 side chain; on linkers, the order of the positions; unused ones are H or OH. Bridge positions count the residues as written; N and C are the ends. Square brackets hold non-standard residues; d marks the D form. Peptide text beside a SMILES is read from it. * marks the point of attachment. TtdsdLys(DOTA)NH2 = NC(=O)[C@@H](CCCCNC(=O)CN1CCN(CC(=O)O)CCN(CC(=O)O)CCN(CC(=O)O)CC1)NC(=O)CCC(=O)NCCCOCCOCCOCCCN*; X9 = C=C(N([C@@H](Cc1ccc(Cl)cc1)C(=O)[*:2])[*:1])C(C)(C)NC(=O)[C@@H](NC(C)=O)[C@@H](C)O; X3 = O=C(O)CN1CCN(CC(=O)O)CCN(CC(=O)NCCCOCCOCCOCCCN*)CCN(CC(=O)O)CC1; DOTA = O=C(O)CN1CCN(CC(=O)O)CCN(CC(=O)*)CCN(CC(=O)O)CC1; Phe(4-Cl) = N[C@@H](Cc1ccc(Cl)cc1)C(=O)O; Phe(4-Me) = Cc1ccc(C[C@H](N)C(=O)O)cc1; Ethylenediamine = C(CN[*:2])N[*:1]; d(αMeD) = C[C@@](N)(CC(=O)O)C(=O)O; X5 = O=C(c1ccc(CN[*:1])nc1)[*:2]; 2Pal = N[C@@H](Cc1ccccn1)C(=O)O; X1 = O=C(CC1CCN([*:1])CC1)[*:2]; Cit = NC(=O)NCCC[C@H](N)C(=O)O; Suc = O=C(CCC(=O)[*:2])[*:1]; Tle = CC(C)(C)[C@H](N)C(=O)O; 4Amb = NCc1ccc(C(=O)O)cc1; Nle = CCCC[C@H](N)C(=O)O; Aib = CC(C)(N)C(=O)O; βAla = NCCC(=O)O

Key:
[1] = biological target: T1, Fc-fusion protein of human PSMA (hPSMA-Fc) (Homo sapiens, UniProt Q04609); assay: Surface plasmon resonance assay (Biacore T200, single cycle kinetic); format: binding; conditions: read-out: pKD CAT (converted)
T1 construct: purchased Acro Biosystems PSA-H5264
Method in brief: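 KD, expressed as pKD, came from 1:1 Langmuir fits of reference- and buffer-blank-subtracted SPR data. The runs were single-cycle kinetics at 25° C in HBST/0.1% DMSO over human PSMA-Fc, captured to ~1000 RU on a peptide-coated CM5 surface and regenerated with 10 mM glycine pH 1.5.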

[2] = biological target: T2, PSMA-expressing C4-2 cells (Homo sapiens, UniProt Q04609); assay: FACS binding assay (competition with 50 nM PSM-0183); conditions: C4-2 cells, read-out: pIC50 [C4-2] CAT (converted)
T2 construct: PSMA-expressing C4-2 cells (ATCC, Cat. No. CRL-3314) were cultured in RPMI-1640; host or cells: C4-2 cells
Method in brief: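 Competition format: fluorescent tracer PSM-0183 (50 nM) displaced from PSMA on C4-2 cells by a test compound titration over 1 h at 4 °C. Bound tracer was quantified as flow-cytometric AF488 median fluorescence after washing. Four-parameter logistic fits of MFI data gave IC50 and pIC50.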

[3] = pKD category for PSMA SPR activity assay, hPSMA-Fc, 25° C.
[4] = SPR, hPSMA-Fc, single cycle kinetic, 25° C., category
[5] = FACS binding, competition with 50 nM PSM-0183, category

T1 sequence (Q04609 44-750 limits assumed): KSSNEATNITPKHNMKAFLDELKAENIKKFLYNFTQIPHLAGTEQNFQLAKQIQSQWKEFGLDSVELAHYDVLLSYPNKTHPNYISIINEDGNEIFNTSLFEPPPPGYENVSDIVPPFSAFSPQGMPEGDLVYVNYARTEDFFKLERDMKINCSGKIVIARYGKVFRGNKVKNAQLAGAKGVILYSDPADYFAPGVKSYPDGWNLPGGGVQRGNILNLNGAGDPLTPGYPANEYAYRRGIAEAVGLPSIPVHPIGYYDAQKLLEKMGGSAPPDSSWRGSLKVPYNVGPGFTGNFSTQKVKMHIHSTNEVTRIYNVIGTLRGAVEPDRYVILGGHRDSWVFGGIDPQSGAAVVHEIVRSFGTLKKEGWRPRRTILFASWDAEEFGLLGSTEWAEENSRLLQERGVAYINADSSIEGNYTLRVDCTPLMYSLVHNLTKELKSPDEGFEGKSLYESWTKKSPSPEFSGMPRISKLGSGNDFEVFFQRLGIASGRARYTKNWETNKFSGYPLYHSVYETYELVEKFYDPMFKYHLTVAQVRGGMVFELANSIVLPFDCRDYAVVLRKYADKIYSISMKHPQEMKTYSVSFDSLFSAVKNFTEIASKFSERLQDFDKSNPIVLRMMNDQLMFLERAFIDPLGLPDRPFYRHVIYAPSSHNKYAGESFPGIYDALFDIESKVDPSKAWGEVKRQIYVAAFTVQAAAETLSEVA
T2 sequence (Q04609 whole entry): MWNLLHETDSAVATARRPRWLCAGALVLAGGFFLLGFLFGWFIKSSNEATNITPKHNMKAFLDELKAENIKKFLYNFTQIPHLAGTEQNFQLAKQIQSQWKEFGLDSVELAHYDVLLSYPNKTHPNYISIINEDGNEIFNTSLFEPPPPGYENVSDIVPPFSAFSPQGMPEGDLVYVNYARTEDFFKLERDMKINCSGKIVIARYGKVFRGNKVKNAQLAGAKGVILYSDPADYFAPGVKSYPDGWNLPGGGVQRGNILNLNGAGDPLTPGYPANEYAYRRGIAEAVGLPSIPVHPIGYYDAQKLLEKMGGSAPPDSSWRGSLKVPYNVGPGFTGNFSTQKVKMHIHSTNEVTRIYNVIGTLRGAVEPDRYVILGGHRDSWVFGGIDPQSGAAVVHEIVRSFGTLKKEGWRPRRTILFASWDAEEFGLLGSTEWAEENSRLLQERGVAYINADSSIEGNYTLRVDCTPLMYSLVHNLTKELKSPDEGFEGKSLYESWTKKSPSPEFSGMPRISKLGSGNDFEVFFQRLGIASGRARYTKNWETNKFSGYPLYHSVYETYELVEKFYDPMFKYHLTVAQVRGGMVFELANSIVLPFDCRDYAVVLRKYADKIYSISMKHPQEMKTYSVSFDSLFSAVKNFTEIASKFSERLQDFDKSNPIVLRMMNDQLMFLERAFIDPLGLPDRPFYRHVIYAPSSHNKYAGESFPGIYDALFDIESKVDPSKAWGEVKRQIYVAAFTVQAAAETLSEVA

Structure (SMILES) | Kd [1, 3] | IC50 ([2]; pIC50 category of FACS binding) | other results
CC(=O)N[C@H](C(=O)NC(C)(C)C(=O)N[C@@H](Cc1ccccc1)C(=O)N[C@H]1CSSC[C@@H](C(=O)N[C@H](C(=O)N[C@H](C(=O)N[C@@H](CC(=O)O)C(N)=O)[C@@H](C)O)C(C)(C)C)NC(=O)[C@H](CC(N)=O)NC(=O)[C@H](C)NC(=O)[C@H](CCCNC(=N)N)NC(=O)[C@H](CCCCN)NC1=O)[C@@H](C)O [PSM-0565, Ac-Thr-Aib-Phe-[Cys-Lys-Arg-Ala-Asn-Cys]-Tle-Thr-Asp-NH2] (Ac-T[Aib]FCKRANC[Tle]TD-NH2; disulfide 4-9) |  |  | Kd ([1]; PSMA SPR assay, category): < 12.6 nM; IC50 ([2]; FACS binding, category): < 200 nM
CC(C)(NC(=O)c1ccc(CNC(=O)CN2CCN(CC(=O)O)CCN(CC(=O)O)CCN(CC(=O)O)CC2)cc1)C(=O)N[C@@H](Cc1ccc(Cl)cc1)C(=O)N[C@H]1CSSC[C@@H](C(=O)N[C@H](C(=O)NCCC(N)=O)C(C)(C)C)NC(=O)[C@H](CC(N)=O)NC(=O)C(C)(C)NC(=O)[C@H](CCCNC(=N)N)NC(=O)[C@H](CCCCN)NC1=O [PSM-0432, DOTA-Pamb-Aib-Pcf-[Cys-Lys-Arg-Aib-Asn-Cys]-Tle-Bal-NH2] ({DOTA-4Amb}-[Aib][Phe(4-Cl)]CKR[Aib]NC[Tle][βAla]-NH2; disulfide 3-8) | < 12.6 nM | < 200 nM | 
CC(=O)NCc1ccc(C(=O)NC(C)(C)C(=O)N[C@@H](Cc2ccc(Cl)cc2)C(=O)N[C@H]2CSSC[C@@H](C(=O)N[C@H](C(=O)NCCNC(=O)CN3CCN(CC(=O)O)CCN(CC(=O)O)CCN(CC(=O)O)CC3)C(C)(C)C)NC(=O)[C@H](CC(N)=O)NC(=O)C(C)(C)NC(=O)[C@H](CCCNC(=N)N)NC(=O)[C@H](CCCCN)NC2=O)cn1 [PSM-0186, Ac-Pamp-Aib-Pcf-[Cys-Lys-Arg-Aib-Asn-Cys]-Tle-en-DOTA] (Ac-[X5][Aib][Phe(4-Cl)]CKR[Aib]NC[Tle]-{Ethylenediamine-DOTA}; disulfide 4-9) |  |  | Kd [1, 4]: < 12.6 nM; IC50 [2, 5]: < 200 nM
C=C(N[C@@H](Cc1ccc(Cl)cc1)C(=O)N[C@H]1CSSC[C@@H](C(=O)N[C@H](C(=O)N[C@H](C(N)=O)[C@@H](C)O)C(C)(C)C)NC(=O)[C@H](CCCNC(=N)N)NC(=O)C(C)(C)NC(=O)[C@H](CCCNC(N)=O)NC(=O)[C@H](CCCCN)NC1=O)C(C)(C)NC(=O)[C@@H](NC(C)=O)[C@@H](C)O [PSM-0240, Ac-Thr-Aib-Pcf-[Cys-Lys-Cit-Aib-Arg-Cys]-Tle-Thr-NH2] (H-[X9]CK[Cit][Aib]RC[Tle]T-NH2; disulfide 2-7) |  |  | Kd [1, 4]: < 12.6 nM; IC50 [2, 5]: < 200 nM
CC(=O)N[C@H](C(=O)NC(C)(C)C(=O)N[C@@H](Cc1ccc(C)cc1)C(=O)N[C@H]1CSSC[C@@H](C(=O)N[C@H](C(=O)N[C@H](C(N)=O)[C@@H](C)O)C(C)(C)C)NC(=O)[C@H](CC(N)=O)NC(=O)C(C)(C)NC(=O)[C@H](CCCNC(=N)N)NC(=O)[C@H](CCCCN)NC1=O)[C@@H](C)O [PSM-0372, Ac-Thr-Aib-Pmf-[Cys-Lys-Arg-Aib-Asn-Cys]-Tle-Thr-NH2] (Ac-T[Aib][Phe(4-Me)]CKR[Aib]NC[Tle]T-NH2; disulfide 4-9) | < 12.6 nM | < 200 nM | 
CC(=O)N[C@H](C(=O)NC(C)(C)C(=O)N[C@@H](Cc1ccc(Cl)cc1)C(=O)N[C@H]1CSSC[C@@H](C(=O)N[C@H](C(=O)N[C@H](C(=O)O)[C@@H](C)O)C(C)(C)C)NC(=O)[C@H](CC(N)=O)NC(=O)C(C)(C)NC(=O)[C@H](CCCNC(=N)N)NC(=O)[C@H](CCCCN)NC1=O)[C@@H](C)O [PSM-0493, Ac-Thr-Aib-Pcf-[Cys-Lys-Arg-Aib-Asn-Cys]-Tle-Thr-OH] (Ac-T[Aib][Phe(4-Cl)]CKR[Aib]NC[Tle]T-OH; disulfide 4-9) | < 12.6 nM | < 200 nM | 
C[C@@H](O)[C@H](NC(=O)[C@@H](NC(=O)[C@@H]1CSSC[C@H](NC(=O)[C@H](Cc2ccccc2)NC(=O)C(C)(C)NC(=O)[C@@H](NC(=O)CCC(=O)NCCCOCCOCCOCCCNC(=O)CN2CCN(CC(=O)O)CCN(CC(=O)O)CCN(CC(=O)O)CC2)[C@@H](C)O)C(=O)N[C@@H](CCCCN)C(=O)N[C@@H](CCC(N)=O)C(=O)NC(C)(C)C(=O)N[C@@H](CC(N)=O)C(=O)N1)C(C)(C)C)C(N)=O [PSM-0521, DOTA-Ttds-Thr-Aib-Phe-[Cys-Lys-Gln-Aib-Asn-Cys]-Tle-Thr-NH2] ({X3-Suc}-T[Aib]FCKQ[Aib]NC[Tle]T-NH2; disulfide 4-9) | 12.6 to 126 nM | 200 to 1260 nM | 

The next lines start with results.

Kd [1, 3] | IC50 ([2]; pIC50 category of FACS binding) | Structure (SMILES) | other results
126 to 501 nM | 200 to 1260 nM | C[C@@H](O)[C@H](NC(=O)[C@@H](NC(=O)[C@@H]1CSSC[C@H](NC(=O)[C@H](Cc2ccc(Cl)cc2)NC(=O)[C@@](C)(CC(=O)O)NC(=O)[C@@H](NC(=O)CC2CCN(C(=O)CN3CCN(CC(=O)O)CCN(CC(=O)O)CCN(CC(=O)O)CC3)CC2)[C@@H](C)O)C(=O)N[C@@H](CCCCN)C(=O)N[C@@H](CCCNC(=N)N)C(=O)NC(C)(C)C(=O)N[C@@H](CC(N)=O)C(=O)N1)C(C)(C)C)C(N)=O [PSM-0366, DOTA-Cmp-Thr-amd-Pcf-[Cys-Lys-Arg-Aib-Asn-Cys]-Tle-Thr-NH2] ({DOTA}-[X1]T[d(αMeD)][Phe(4-Cl)]CKR[Aib]NC[Tle]T-NH2; disulfide 5-10) | 
12.6 to 126 nM | 200 to 1260 nM | C[C@@H](O)[C@H](NC(=O)[C@@H](NC(=O)[C@@H]1CSSC[C@H](NC(=O)[C@H](Cc2ccccn2)NC(=O)C(C)(C)NC(=O)[C@@H](NC(=O)CC2CCN(C(=O)CN3CCN(CC(=O)O)CCN(CC(=O)O)CCN(CC(=O)O)CC3)CC2)[C@@H](C)O)C(=O)N[C@@H](CCCCN)C(=O)N[C@@H](CCCNC(N)=O)C(=O)NC(C)(C)C(=O)N[C@@H](CC(N)=O)C(=O)N1)C(C)(C)C)C(N)=O [PSM-0512, DOTA-Cmp-Thr-Aib-Opa-[Cys-Lys-Cit-Aib-Asn-Cys]-Tle-Thr-NH2] ({DOTA}-[X1]T[Aib][2Pal]CK[Cit][Aib]NC[Tle]T-NH2; disulfide 5-10) | 
12.6 to 126 nM | < 200 nM | CC(C)(NC(=O)c1ccc(CNC(=O)CN2CCN(CC(=O)O)CCN(CC(=O)O)CCN(CC(=O)O)CC2)cc1)C(=O)N[C@@H](Cc1ccccc1)C(=O)N[C@H]1CSSC[C@@H](C(=O)N[C@H](C(N)=O)C(C)(C)C)NC(=O)[C@H](CC(N)=O)NC(=O)C(C)(C)NC(=O)[C@H](CCCNC(=N)N)NC(=O)[C@H](CCCCN)NC1=O [PSM-0458, DOTA-Pamb-Aib-Phe-[Cys-Lys-Arg-Aib-Asn-Cys]-Tle-NH2] ({DOTA-4Amb}-[Aib]FCKR[Aib]NC[Tle]-NH2; disulfide 3-8) | 
12.6 to 126 nM | 200 to 1260 nM | CCCC[C@H](NC(=O)[C@@H]1CSSC[C@H](NC(=O)[C@H](Cc2ccccc2)NC(=O)[C@H](C)NC(=O)[C@@H](NC(C)=O)[C@@H](C)O)C(=O)N[C@@H](CCCCN)C(=O)N[C@@H](CCCNC(=N)N)C(=O)N[C@@H](C)C(=O)N[C@@H](CC(N)=O)C(=O)N1)C(=O)N[C@H](C(=O)N[C@@H](CC(=O)O)C(=O)NCCCOCCOCCOCCCNC(=O)CCC(=O)N[C@H](CCCCNC(=O)CN1CCN(CC(=O)O)CCN(CC(=O)O)CCN(CC(=O)O)CC1)C(N)=O)[C@@H](C)O [PSM-0533, Ac-Thr-Ala-Phe-[Cys-Lys-Arg-Ala-Asn-Cys]-Nle-Thr-Asp-Ttds-lys(DOTA)-NH2] (Ac-TAFCKRANC[Nle]TD-{TtdsdLys(DOTA)NH2}; disulfide 4-9) | 
